Key:
[1] = test system: superoxide dismutase (SOD); assay: Superoxide dismutase in liver homogenate, DEN/2-AAF hepatocarcinogenesis model; assay type: in vivo, albino Wistar rats; conditions: mean±SEM, 8 rats
Description: The experimental hepatocarcinogenesis model was developed according to a protocol by […] et al. that was adapted for our purposes. To initiate and promote hepatocarcinogenesis, diethylnitrosamine (DEN) and 2-acetylaminofluorene (2-AAF) were used, respectively. For hepatocarcinogenesis initiation in this model, a single DEN dose (200 mg/kg b.wt.) dissolved in saline was injected intraperitoneally. After initiation, all rats underwent one period of 5-days fasting, as mitotic proliferative stimuli. To promote hepatocarcinogenesis, 2-acetylaminofluorene (2-AAF) was introduced in the form of six daily intragastric doses (30 mg/kg in 1% Tween 80); two weeks after DEN treatment. […] at doses of 25 mg/kg by weight (b.wt.) and 50 mg/kg b.wt, was administrated orally to rats. These doses have been reported to suppress chemically-induced oxidative damage in rats. A total of 40 adult male albino Wistar rats were randomly divided into […] (n=8) and were subjected to different treatments. Group 1 (control) was orally administered distilled water (5 ml/kg b.wt.) throughout the experimental duration and were injected with a single dose of saline. Group 2 ([…] only) was subjected to a safranal dose (50 mg/kg b.wt.) through oral administration for the duration of the experimental period. Hepatocarcinogenesis was induced by DEN and promoted by 2-AAF, as reported previously, in group 3 (HCC). […] Glutathione (GSH) content was determined by analyzing liver homogenates, according to the method of Van Dooran et al. The assay depends on measuring yellow 5-thiol-2-nitrobenzoate absorbance at 412 nm. Glutathione-S-transferase (GST) activity was determined using the method of Habig et al. GST catalyzes the conjugation of GSH thiol group with 1-Chloro-2,4-dinitrobenzene (CDNB), which can be measured by determining the increase in absorbance at 340 nm. […] CAT decomposes hydrogen peroxide (H2O2) to oxygen and water; therefore, the activity of CAT was evaluated according to by the exponential decomposition of H2O2 at 240 nm. […] UV-160-Shimadzu recording spectrophotometer was used to record absorbances. […]

[2] = test system: DNA fragmentation (TUNEL-positive cells); assay: TUNEL assay of liver sections (apoptosis); assay type: in vivo, albino Wistar rats
Description: The experimental hepatocarcinogenesis model was developed according to a protocol by Espandiaria et al. that was adapted for our purposes. To initiate and promote hepatocarcinogenesis, diethylnitrosamine (DEN) and 2-acetylaminofluorene (2-AAF) were used, respectively. For hepatocarcinogenesis initiation in this model, a single DEN dose (200 mg/kg b.wt.) dissolved in saline was injected intraperitoneally. After initiation, all rats underwent one period of 5-days fasting, as mitotic proliferative stimuli. To promote hepatocarcinogenesis, 2-acetylaminofluorene (2-AAF) was introduced in the form of six daily intragastric doses (30 mg/kg in 1% Tween 80); two weeks after DEN treatment.
Safranal at doses of 25 mg/kg by weight (b.wt.) and 50 mg/kg b.wt, was administrated orally to rats. These doses have been reported to suppress chemically-induced oxidative damage in rats. A total of 40 adult male albino Wistar rats were randomly divided into […] (n=8) and were subjected to different treatments. Group 1 (control) was orally administered distilled water (5 ml/kg b.wt.) throughout the experimental duration and were injected with a single dose of saline. […]
TUNEL assay was performed for the purpose of assessing apoptosis. […] DNA fragmentation, a key indicator of apoptosis, is detected using this kit. […]

`CC1=C(C=O)C(C)(C)CC=C1` [Safranal, 2,6,6-trimethylcyclohexa-1,3-diene-1-carbaldehyde] showed an SOD ([1]; HCC (DEN/2-AAF) rats + safranal high dose 50 mg/kg b.wt. oral, 12 weeks) of 3.96 ± 0.13 unit/mg protein, an SOD ([1]; HCC (DEN/2-AAF) rats + safranal low dose 25 mg/kg b.wt. oral, 12 weeks) of 4.02 ± 0.18 unit/mg protein and an SOD ([1]; safranal alone 50 mg/kg b.wt. oral, no DEN (group 2)) of 4.05 ± 0.09 unit/mg protein. For the same molecule, the “number of TUNEL-positive cells” value ([2]; low/high doses of safranal in animals exposed to DEN, compared to group 3) was “significant increase in the number of both TUNEL- and M30 CytoDeath-positive cells” and the “number of TUNEL-positive cells” value ([2]; safranal only (group 2), compared to control group) was “did not exhibit a notable change”.

From patent US10912741B2, “Prevention of liver cancer with safranal-based formulations” (United Arab Emirates University, priority 2019, dated 2021)
